ChEMBL document CHEMBL1201862, “PubChem BioAssay data set” (2004)
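Values below derive from 48-hour exposures of cells grown in 96-well plates, with endpoints linearly interpolated between the two concentrations bracketing the appropriate inhibition level. GI50 = concentration required for 50% inhibition of growth.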 The source made the active and inactive calls. Cut-off read from the data, not from the text of the source: active = GI50 up to about 1.1 µM and inactive = higher.

Assays:
Assay in all cases: NCI anticancer screen, dose series, 48 h
A498 = system: A498
HCT-15 = system: HCT-15
HOP-62 = system: HOP-62
HOP-92 = system: HOP-92
M14 = system: M14
NCI-H23 = system: NCI-H23
NCI-H522 = system: NCI-H522
OVCAR-4 = system: OVCAR-4
OVCAR-5 = system: OVCAR-5
SF-268 = system: SF-268
SK-OV-3 = system: SK-OV-3
SN12C = system: SN12C
SW-620 = system: SW-620
UO-31 = system: UO-31
EKVX = system: EKVX
HCC 2998 = system: HCC 2998
MDA-MB-231 = system: MDA-MB-231
OVCAR-3 = system: OVCAR-3
T47D = system: T47D

| Compound | GI50 (A498) | GI50 (HCT-15) | GI50 (HOP-62) | GI50 (HOP-92) | GI50 (M14) | GI50 (NCI-H23) | GI50 (NCI-H522) | GI50 (OVCAR-4) | GI50 (OVCAR-5) | GI50 (SF-268) | GI50 (SK-OV-3) | GI50 (SN12C) | GI50 (SW-620) | GI50 (UO-31) | GI50 (EKVX) | GI50 (HCC 2998) | GI50 (MDA-MB-231) | GI50 (OVCAR-3) | GI50 (T47D) |
| --- | --- | --- | --- | --- | --- | --- | --- | --- | --- | --- | --- | --- | --- | --- | --- | --- | --- | --- | --- |
| CCCCNC(=S)Nn1c(-c2ccccc2)nc2ccccc2c1=O | > 100 µM (inactive) | > 100 µM | > 100 µM (inactive) | 67.3 µM (inactive) | > 100 µM (inactive) | > 100 µM (inactive) | 86.3 µM (inactive) | > 100 µM (inactive) | > 100 µM (inactive) | > 100 µM (inactive) | > 100 µM (inactive) | > 100 µM (inactive) | > 100 µM (inactive) | 76.9 µM (inactive) |  |  |  |  |  |
| O=C(Nc1nc(C23CC4CC(CC(C4)C2)C3)cs1)c1cc2c(ccc3ccccc32)oc1=O | > 100 µM (inactive) | > 100 µM | > 100 µM (inactive) | > 100 µM (inactive) |  | > 100 µM (inactive) | > 100 µM (inactive) | > 100 µM (inactive) | > 100 µM (inactive) | > 100 µM (inactive) |  | > 100 µM (inactive) | > 100 µM (inactive) | > 100 µM (inactive) | > 100 µM (inactive) | > 100 µM (inactive) | > 100 µM (inactive) | > 100 µM (inactive) |  |
| Cc1cc(C)c(S(=O)(=O)ONC(=O)OC(C)(C)C)c(C)c1 | > 100 µM (inactive) | > 100 µM | > 100 µM (inactive) | > 100 µM (inactive) | > 100 µM (inactive) | > 100 µM (inactive) | > 100 µM (inactive) | > 100 µM (inactive) | > 100 µM (inactive) | > 100 µM (inactive) | > 100 µM (inactive) | > 100 µM (inactive) | > 100 µM (inactive) | > 100 µM (inactive) | > 100 µM (inactive) | > 100 µM (inactive) |  | > 100 µM (inactive) |  |
| COC(=O)CC(SCCO)SCCO | > 100 µM (inactive) |  | > 100 µM (inactive) | > 100 µM (inactive) | > 100 µM (inactive) | > 100 µM (inactive) | > 100 µM (inactive) | > 100 µM (inactive) | > 100 µM (inactive) | > 100 µM (inactive) | > 100 µM (inactive) | > 100 µM (inactive) | > 100 µM (inactive) | > 100 µM (inactive) | > 100 µM (inactive) | > 100 µM (inactive) | > 100 µM (inactive) | > 100 µM (inactive) |  |
| CC[N+]1(C)CCC(O)(c2ccc(C)cc2)C(C(=O)c2ccc(C)cc2)C1 (configuration not stated) | > 100 µM (inactive) | 21.7 µM | > 100 µM (inactive) | 23 µM (inactive) | 44.8 µM (inactive) | > 100 µM (inactive) | 23.7 µM (inactive) | 34.4 µM (inactive) | 31 µM (inactive) | 34.8 µM (inactive) | > 100 µM (inactive) | > 100 µM (inactive) | 20.6 µM (inactive) | > 100 µM (inactive) | > 100 µM (inactive) | > 100 µM (inactive) | 26.7 µM (inactive) | 21.7 µM (inactive) |  |
| COc1cc(C2c3cc4c(cc3OC(N3CCOCC3)C2C)OCO4)ccc1O (configuration not stated) | 17.6 µM (inactive) | 4.98 µM | 11.7 µM (inactive) | 2.84 µM (inactive) | 6.34 µM (inactive) | 28.6 µM (inactive) | 8.15 µM (inactive) | 50.9 µM (inactive) | > 76.2 µM (inactive) | 35.2 µM (inactive) |  | 40 µM (inactive) | 6.3 µM (inactive) | 16 µM (inactive) | 36.1 µM (inactive) | 14.9 µM (inactive) |  | 7.62 µM (inactive) | 10.3 µM (inactive) |
| COc1ccc2c(c1)[n+]([O-])c1cc(C#N)ccc1[n+]2[O-] |  | 0.723 µM | 2.11 µM (inactive) | 6.56 µM (inactive) | 0.33 µM (active) | 0.849 µM (active) | 5.62 µM (inactive) | 12.4 µM (inactive) | 15.2 µM (inactive) | 13.3 µM (inactive) | 18.5 µM (inactive) | 3.17 µM (inactive) | 4.34 µM (inactive) | 5.31 µM (inactive) | 24 µM (inactive) |  | 12.5 µM (inactive) | 5.83 µM (inactive) | 11.7 µM (inactive) |
| C=C(Cl)C(C)(Cl)CCC(Cl)C(C)(C)Cl (configuration not stated) | > 100 µM (inactive) |  | > 100 µM (inactive) | 25.9 µM (inactive) | 70.8 µM (inactive) | 83.2 µM (inactive) | 23.1 µM (inactive) | 53.7 µM (inactive) | > 100 µM (inactive) | 89.9 µM (inactive) | > 100 µM (inactive) | 51.6 µM (inactive) | 51.6 µM (inactive) | 37.6 µM (inactive) | > 100 µM (inactive) | > 100 µM (inactive) | 32.7 µM (inactive) | 46 µM (inactive) |  |
| CC(OC(C)(C)C)[C@H](NC(=O)OCc1ccccc1)C(=O)NC(OCc1ccccc1)[C@H]1COC(C)(C)O1 (some centres not stated) | > 10 µM (inactive) | > 10 µM | > 10 µM (inactive) | > 10 µM (inactive) | > 10 µM (inactive) | > 10 µM (inactive) | > 10 µM (inactive) | > 10 µM (inactive) | > 10 µM (inactive) | 40.3 µM (inactive) | > 10 µM (inactive) | > 10 µM (inactive) | > 10 µM (inactive) | > 10 µM (inactive) | > 10 µM (inactive) | > 10 µM (inactive) | > 10 µM (inactive) | > 10 µM (inactive) |  |
| CN1C2=C(CC3=C1CC(C)(C)CC3=O)C(=O)CC(C)(C)C2 | > 100 µM (inactive) | > 100 µM |  | > 100 µM (inactive) | > 100 µM (inactive) | > 100 µM (inactive) |  | > 100 µM (inactive) | > 100 µM (inactive) | > 100 µM (inactive) | > 100 µM (inactive) | > 100 µM (inactive) | > 100 µM (inactive) | > 100 µM (inactive) | > 100 µM (inactive) | > 100 µM (inactive) |  | > 100 µM (inactive) |  |
| CNc1cccc2c1C(C)C[C@]1(C)C(=O)Nc3ccccc3[C@H]21 (some centres not stated) | 24 µM (inactive) | 39.4 µM | 19.8 µM (inactive) |  | 20.2 µM (inactive) | 60.1 µM (inactive) | 20.5 µM (inactive) | 18.1 µM (inactive) | 31.1 µM (inactive) | 34 µM (inactive) |  | 21 µM (inactive) | 33.9 µM (inactive) | 23.1 µM (inactive) | 41.7 µM (inactive) | 51.3 µM (inactive) | 20.6 µM (inactive) | 17.5 µM (inactive) | 41.1 µM (inactive) |
| O=C(Nc1nnc(-c2ccccc2)o1)C(SC(=S)N1CCCCC1)c1ccccc1 (configuration not stated) | 27.3 µM (inactive) | 5.02 µM | 18.3 µM (inactive) |  | 12.6 µM (inactive) | 12.4 µM (inactive) | 23.5 µM (inactive) | 30.5 µM (inactive) | 26.6 µM (inactive) |  | 28.4 µM (inactive) | 10.9 µM (inactive) | 31.8 µM (inactive) | 8.79 µM (inactive) | 20.9 µM (inactive) |  | 38.5 µM (inactive) | 17.3 µM (inactive) | 31.2 µM (inactive) |
| CCCC(O)c1ccc2[nH]c3c(C)cc([N+](=O)[O-])c(C)c3c2c1 (configuration not stated) |  | > 100 µM | > 100 µM (inactive) |  | > 100 µM (inactive) | > 100 µM (inactive) | > 100 µM (inactive) | > 100 µM (inactive) | > 100 µM (inactive) | > 100 µM (inactive) |  | > 100 µM (inactive) | 99.1 µM (inactive) | > 100 µM (inactive) | > 100 µM (inactive) | > 100 µM (inactive) |  | 83.2 µM (inactive) |  |
| C=CCn1c(=O)c2ccccc2[n+]2c(C)c(C(=O)OCC)sc12 |  | > 100 µM | 42.4 µM (inactive) |  | > 100 µM (inactive) | > 100 µM (inactive) | > 100 µM (inactive) | > 100 µM (inactive) | > 100 µM (inactive) | > 100 µM (inactive) | > 100 µM (inactive) | > 100 µM (inactive) | > 100 µM (inactive) | > 100 µM (inactive) | > 100 µM (inactive) | > 100 µM (inactive) | > 100 µM (inactive) | > 100 µM (inactive) | > 100 µM (inactive) |
| COC1=CC(=O)[C@]2(C)[C@H](C1=O)C(C)[C@H]2c1ccc(OC)cc1 (some centres not stated) | > 100 µM (inactive) | > 100 µM | > 100 µM (inactive) | > 100 µM (inactive) | > 100 µM (inactive) | > 100 µM (inactive) | > 100 µM (inactive) | > 100 µM (inactive) | > 100 µM (inactive) | > 100 µM (inactive) | > 100 µM (inactive) |  | > 100 µM (inactive) | 82 µM (inactive) | > 100 µM (inactive) | > 100 µM (inactive) |  | > 100 µM (inactive) |  |
| COc1cc([C@@H]2c3cc4c(cc3C[C@H]3COC(=O)[C@@H]32)OCO4)cc2c1OCO2 [AUSTROBAILIGNAN 1] | < 0.01 µM (active) | < 0.01 µM | < 0.01 µM (active) | < 0.01 µM (active) | < 0.01 µM (active) | < 0.01 µM (active) | < 0.01 µM (active) | 11.4 µM (inactive) | < 0.01 µM (active) | < 0.01 µM (active) | < 0.01 µM (active) | < 0.01 µM (active) | < 0.01 µM (active) | < 0.01 µM (active) | < 0.01 µM (active) | < 0.01 µM (active) | < 0.01 µM (active) | < 0.01 µM (active) |  |
| O[C@H]1[C@H]2c3cc4c(cc3CN3CCC(=C[C@@H]1O)[C@H]23)OCO4 [LYCORINE] | 2.96 µM (inactive) | 1.33 µM | 1.78 µM (inactive) |  | 1.86 µM (inactive) | 2.42 µM (inactive) | 1.05 µM (active) | 1.34 µM (inactive) | 2.5 µM (inactive) | 0.802 µM (active) | 1.84 µM (inactive) | 1.7 µM (inactive) | 2.61 µM (inactive) | 1.47 µM (inactive) | 2.39 µM (inactive) | 2.33 µM (inactive) | 1.65 µM (inactive) | 2.47 µM (inactive) | 2.49 µM (inactive) |
